Assay results taken from US12612412B2, “Antiviral heterocyclic compounds” (Enanta Pharmaceuticals, Inc., priority 2021, dated 2026).
Read-outs that look alike come from different tables or passages of the source.

Experiments:
[1] = test system: HMPV clinical isolate TN/1501/A1; assay: HMPV antiviral assay Method-B (clinical isolate TN/1501/A1 in LLC-MK2 cells, ATP-Lite readout); format: cell-based, Human metapneumovirus (HMPV); details: hMPV WT1501 (clinical isolate TN/1501/A1), 6 days
In short: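 LLC-MK2 cells infected in suspension with TN/1501/A1 at MOI 0.014 in serum-free medium with 2 μg/mL TPCK-trypsin (final), incubated 6 days at 37° C. Compounds tested in duplicate, 10-point 3-fold dilutions from 10 μM. Cell health read by ATP-Lite luminescence, normalised to virus-only and cells-only controls; EC50 by four-parameter logistic fit.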

[2] = test system: genotype A, "Long" strain RSV; assay: RSV-A assay (CPE protection in Hep-2 cells, ATPlite readout); format: cell-based, Human respiratory syncytial virus (HRSV); details: MOI 0.1, CPE protection
In short: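 Hep-2, 8,000 cells/well, MOI 0.1 (PFU- or TCID50-based); 2-fold compound series, duplicates; 5 d incubation; ATPlite luminescence readout; EC50.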

[3] = human metapneumovirus, LLC-MK2, 144 h
[4] = human respiratory syncytial virus, RSV-A Long strain, read-out: Human RSV-A (“Long”) EC50
[5] = human respiratory syncytial virus, genotype A “Long” strain RSV, read-out: Human RSV-A (“Long”)

SMILES	EC50 [1]	EC50 ([2]; RSV-A Long strain, read-out: Human RSV-A (“Long”) EC50)	EC50 [1, 3]	EC50 [2, 4]	EC50 [2, 5]
COc1cc(C(=O)NC[C@](O)(c2cc3c(c(-c4ccc(F)c(Cl)c4F)n2)OC[C@]3(C)C(N)=O)C2CC2)cc2cc(Cl)c(C)nc12 [Example 557]	–	–	< 0.5 µM	–	< 0.2 µM
C[C@]1(C(N)=O)COc2c1cc([C@@](O)(CNC(=O)c1ccc3nn(C4CC4)cc3c1)C(F)(F)F)nc2-c1cc(F)c(F)cc1F [Example 1139]	–	–	< 0.5 µM	< 0.2 µM	–
COc1cc(C(=O)NC[C@](O)(c2cc3c(c(-c4ccc(F)c(C(F)(F)F)c4)n2)OC[C@]3(C)C(N)=O)C2CC2)cc2cc(Cl)c(C)nc12 [Example 1103]	–	–	< 0.5 µM	< 0.2 µM	–
[2H]C([2H])([2H])[C@](O)(CNC(=O)c1cc(OC)c2nn(C3CC3)cc2c1)c1cc2c(c(-c3ccc(F)cc3)n1)OC[C@]2(C)C(N)=O [Example 645]	–	–	> 0.5 µM	–	< 0.2 µM
COc1cc(C(=O)NC[C@](O)(c2cc3c(c(-c4ccccc4-c4ccccc4)n2)OC[C@]3(C)C(N)=O)C(F)(F)F)cc2cn(C3CC3)nc12 [Example 1250]	–	–	> 0.5 µM	< 0.2 µM	–
COc1cc(C(=O)NC[C@](O)(c2cc3c(c(-c4ccc(F)c(F)c4F)n2)OC[C@]3(C(N)=O)C(F)F)C(F)(F)F)cc2cc(Cl)c(C)nc12 [Example 1040]	–	–	> 0.5 µM	< 0.2 µM	–
Cc1cnc2c(OC(F)F)cc(C(=O)NC[C@](O)(c3cc4c(c(-c5ccc(F)cc5)n3)OC[C@@]4(C(N)=O)C(F)F)C(F)(F)F)cc2c1 [Example 1007]	–	–	< 0.5 µM	< 0.2 µM	–
COc1cc(C(=O)NC[C@](O)(c2cc3c(c(-c4ccc(F)cc4)n2)OC[C@]3(C)C(N)=O)C(F)(F)F)cc2cn(C(F)(F)F)nc12 [Example 1068]	–	–	< 0.5 µM	< 0.2 µM	–
COc1cc(C(=O)NC[C@](O)(c2cc3c(c(-c4cc(F)c(F)cc4F)n2)OC[C@]3(C)C(N)=O)C(F)(F)F)cc2cn(C3CC3)nc12 [Example 1135]	–	–	< 0.5 µM	< 0.2 µM	–
C[C@]1(C(N)=O)COc2c1cc([C@@](O)(CNC(=O)c1ccc3nn(C4CC4)cc3c1)C1CC1)nc2-c1c(F)ccc(Cl)c1F [Example 1167]	–	–	< 0.5 µM	< 0.2 µM	–
COc1cc(C(=O)NC[C@](O)(c2cc3c(c(-c4ccc(F)cc4)n2)OC[C@]3(C)C(N)=O)C(F)(F)F)cc2c(=O)n(C3CC3)[nH]c12 [Example 876]	–	–	> 0.5 µM	> 0.2 µM	–
COc1cc(C(=O)NC[C@](O)(c2cc3c(c(-c4ccc(C(F)(F)F)cc4)n2)OC[C@]3(C)C(N)=O)C2CC2)cc2cn(C(F)F)nc12 [Example 796]	–	–	< 0.5 µM	–	< 0.2 µM
COc1cc(C(=O)NC[C@](O)(c2cc3c(c(-c4cccc(F)c4Cl)n2)OC[C@]3(C)C(N)=O)C2CC2)cc2cn(C3CC3)nc12 [Example 1122]	–	–	< 0.5 µM	< 0.2 µM	–
COc1cc(C(=O)NC[C@](O)(c2cc3c(c(-c4cc(F)c(F)c(Cl)c4)n2)OC[C@]3(C)C(N)=O)C2CC2)cc2cn(C(F)F)nc12 [Example 788]	–	–	< 0.5 µM	–	< 0.2 µM
Cc1cnc2c(Cl)cc(C(=O)NC[C@](O)(c3cc4c(c(-c5csc6c(F)cccc56)n3)OC[C@]4(C)C(N)=O)C(F)(F)F)cc2c1 [Example 601]	–	–	< 0.5 µM	–	< 0.2 µM
COc1cc(C(=O)NC[C@](O)(c2cc3c(c(-c4csc5ccc(F)cc45)n2)OC[C@]3(C)C(N)=O)C(F)(F)F)cc2cn(C3CC3)nc12 [Example 944]	–	–	> 0.5 µM	< 0.2 µM	–
COc1cc(C(=O)NC[C@](O)(c2cc3c(c(-c4ccc(F)c(F)c4F)n2)OC[C@]3(C)C(N)=O)C(F)(F)F)cc2cn(C3(F)CC3)nc12 [Example 522]	–	–	< 0.5 µM	–	< 0.2 µM
C[C@]1(C(N)=O)COc2c1cc([C@@](O)(CNC(=O)c1ccc3nn(C4CC4)cc3c1)C(F)(F)F)nc2-c1ccc2c(c1)OC(F)(F)O2 [Example 819]	–	–	< 0.5 µM	–	< 0.2 µM
COc1cc(C(=O)NC[C@](O)(c2cc3c(c(-c4ccc(F)c(Cl)c4)n2)OC[C@]3(C)C(N)=O)C2CC2)cc2cc(C3CC3)nn12 [Example 703]	–	–	< 0.5 µM	–	< 0.2 µM
COc1cc(C(=O)NC[C@](O)(c2cc3c(c(-c4ccc(F)c(Cl)c4F)n2)OC[C@]3(C)C(N)=O)C(F)(F)F)cc2cn(C(F)F)nc12 [Example 551]	–	–	< 0.5 µM	–	< 0.2 µM
COc1cc(C(=O)NC[C@](O)(c2cc3c(c(-c4cc(F)c(F)cc4F)n2)OC[C@]3(C)C(N)=O)C2CC2)cc2cn(C3CC3)nc12 [Example 1145]	–	–	< 0.5 µM	< 0.2 µM	–
C[C@]1(C(N)=O)COc2c1cc([C@@](O)(CNC(=O)c1cc(OC3CC3)c3nn(C4(F)CC4)cc3c1)C1CC1)nc2-c1csc2c(F)cccc12 [Example 607]	–	–	< 0.5 µM	–	< 0.2 µM
Cc1cnc2c(Cl)cc(C(=O)NC[C@](O)(c3cc4c(c(-c5cccc(Br)c5F)n3)OC[C@]4(C)C(N)=O)C3CC3)cc2c1 [Example 1091]	–	–	< 0.5 µM	< 0.2 µM	–

The remaining lines, values ahead:

EC50 [1]	EC50 ([2]; RSV-A Long strain, read-out: Human RSV-A (“Long”) EC50)	EC50 [1, 3]	EC50 [2, 4]	EC50 [2, 5]	SMILES
> 0.5 µM	< 0.2 µM	–	–	–	COc1cc(C(=O)NCC(O)(c2cc3c(c(-c4ccc5ccn(C(F)F)c5c4)n2)OCC3(C)C(N)=O)C(F)(F)F)cc2cn(C3CC3)nc12 (stereo not shown) [Example 940]
–	–	< 0.5 µM	< 0.2 µM	–	COc1cc(C(=O)NC[C@](O)(c2cc3c(c(-c4ccc(Cl)c(F)c4)n2)OC[C@]3(C)C(N)=O)C(F)(F)F)cc2cn(C3CC3)nc12 [Example 986]
–	–	> 0.5 µM	> 0.2 µM	–	NC(=O)[C@]1(CF)COc2c1cc([C@@](O)(CNC(=O)c1cc(OC3CC3)c3ncccc3c1)C1CC1)nc2-c1ccc(F)cc1 [Example 1053]
–	–	< 0.5 µM	–	< 0.2 µM	Cc1cnc2c(OC(F)F)cc(C(=O)NC[C@](O)(c3cc4c(c(-c5ccc6c(c5)OC(F)(F)O6)n3)OC[C@]4(C)C(N)=O)C3(F)CC3)cc2c1 [Example 713]
–	–	< 0.5 µM	–	< 0.2 µM	COc1cc(C(=O)NC[C@](O)(c2cc3c(c(-c4ccc(F)c(Cl)c4)n2)OC[C@]3(C)C(N)=O)C2(F)CC2)cc2sc(C)nc12 [Example 723]
–	–	< 0.5 µM	< 0.2 µM	–	COc1cc(C(=O)NC[C@](O)(c2cc3c(c(-c4cc(F)c(Cl)cc4F)n2)OC[C@]3(C)C(N)=O)C2CC2)cc2cc(Cl)c(C)nc12 [Example 1182]
–	–	< 0.5 µM	< 0.2 µM	–	COc1cc(C(=O)NC[C@](O)(c2cc3c(c(-c4ccc5c(c4)CC5)n2)OC[C@]3(C)C(N)=O)C(F)(F)F)cc2cn(C3CC3)nc12 [Example 980]
–	–	< 0.5 µM	< 0.2 µM	–	COc1cc(C(=O)NC[C@](O)(c2cc3c(c(-c4c(F)cc(Cl)cc4F)n2)OC[C@]3(C)C(N)=O)C2CC2)cc2cn(C(F)F)nc12 [Example 1156]
–	–	> 0.5 µM	–	< 0.2 µM	COc1cc(C(=O)NC[C@](O)(c2cc3c(c(-c4ccc(F)c(F)c4F)n2)OC[C@]3(C)C(N)=O)C(F)(F)F)cc2cc(C(F)(F)F)cnc12 [Example 512]
–	–	> 0.5 µM	–	< 0.2 µM	C[C@]1(C(N)=O)COc2c1cc([C@@](O)(CNC(=O)c1cc(F)c3nc(N)sc3c1)C(F)(F)F)nc2-c1ccc2c(c1)OC(F)(F)O2 [Example 698]
–	–	< 0.5 µM	< 0.2 µM	–	COc1cc(C(=O)NC[C@](O)(c2cc3c(c(-c4cc5c(cc4Cl)OC(F)(F)O5)n2)OC[C@]3(C)C(N)=O)C(F)(F)F)cc2cn(C3CC3)nc12 [Example 1227]
–	–	> 0.5 µM	–	< 0.2 µM	COc1cc(C(=O)NC[C@](O)(c2cc3c(c(-c4cc(Cl)c(F)c(Cl)c4)n2)OC[C@]3(C)C(N)=O)C(F)(F)F)cc2cn(C(F)F)nc12 [Example 670]
–	–	> 0.5 µM	–	< 0.2 µM	C[C@]1(C(N)=O)COc2c1cc([C@@](O)(CNC(=O)c1cc(F)c(F)c(NC(=O)NC3CC3)c1)C(F)(F)F)nc2-c1ccc(F)cc1 [Example 624]
–	–	< 0.5 µM	< 0.2 µM	–	COc1cc(C(=O)NC[C@](O)(c2cc3c(c(-c4ccc(F)c(Cl)c4)n2)OC[C@@]3(C(N)=O)C(F)F)C(F)(F)F)cc2sc(C)nc12 [Example 1019]
–	–	< 0.5 µM	< 0.2 µM	–	Cc1nc2c(OC3CC3)cc(C(=O)NC[C@](O)(c3cc4c(c(-c5ccc(F)c(Cl)c5)n3)OC[C@]4(C)C(N)=O)C(F)(F)F)cc2cc1Cl [Example 886]
–	–	< 0.5 µM	–	< 0.2 µM	COc1cc(C(=O)NC[C@](O)(c2cc3c(c(-c4ccc5c(c4)OC(F)(F)O5)n2)OC[C@]3(C)C(N)=O)C(F)(F)F)ccc1OC1CC1 [Example 817]
–	–	< 0.5 µM	< 0.2 µM	–	COc1cc(C(=O)NC[C@](O)(c2cc3c(c(-c4cc(Cl)c(F)cc4F)n2)OC[C@]3(C)C(N)=O)C2CC2)cc2cc(Br)c(C)nc12 [Example 1154]
–	–	< 0.5 µM	–	< 0.2 µM	Cc1cnc2c(OC(F)(F)F)cc(C(=O)NC[C@](O)(c3cc4c(c(-c5ccc(F)cc5)n3)OC[C@]4(C)C(N)=O)C3CC3)cc2c1 [Example 502]
–	–	< 0.5 µM	< 0.2 µM	–	COc1cc(C(=O)NC[C@](O)(c2cc3c(c(-c4cccc(F)c4)n2)OC[C@]3(C)C(N)=O)C(F)(F)F)cc2cn(C3CC3)nc12 [Example 912]
–	–	> 0.5 µM	< 0.2 µM	–	C[C@]1(C(N)=O)COc2c1cc([C@@](O)(CNC(=O)c1ccc3nn(C4(F)CC4)cc3c1)C(F)(F)F)nc2-c1ccc(F)cc1 [Example 832]
–	–	< 0.5 µM	–	< 0.2 µM	Cc1nc2c(OC3CC3)cc(C(=O)NC[C@](O)(c3cc4c(c(-c5ccc(F)cc5Cl)n3)OC[C@]4(C)C(N)=O)C(F)(F)F)cc2cc1Cl [Example 518]
